The text below walks through data of article PMC5766608, “Target engagement imaging of PARP inhibitors in small-cell lung cancer” (Nature Communications, 2018).

The structures appear in SMILES notation. Where two headings read alike, the source gives them in different places.

For one series, the system named is PARylation in LX22 cells. Description: PARylation inhibition assay (western blot for PAR). The settings on record: 0.1 µM, 30 min incubation. The format is cell-based, human. On the procedure: Whole cell lysates were prepared by incubating cells with RIPA Buffer with Triton X (BP-140, Boston BioProducts) containing Protease Inhibitor (Complete EASYpacks, Sigma-Aldrich) for 30 min on ice, followed by 30 min centrifugation at 10,000 × g for 30 min at 4 °C. Protein concentration of lysates was determined using a Bicinchoninic acid (BCA) assay kit (#23225, Pierce) and following the manufacturers instructions. SDS gel electrophoresis and immunoblotting were carried out following standard procedures. Signal detection was carried out using chemiluminescent substrate (#34077, Thermo Scientific). Densitometric analysis of western blots was carried out using ImageJ (NIH). To detect PAR, we used a rabbit polyclonal anti-PAR polymer antibody (1:1000 dilution, #4336-BPC-100, Trevigen) followed by a goat anti-rabbit IgG-HRP secondary antibody (1:10,000 dilution, sc-2004, SantaCruz). B-actin was used as loading control (1:1000 dilution, A3854, Sigma-Aldrich) and was stained after stripping the blot for 30 min at room temperature using stripping buffer (Amresco).
Supplementary Figure 3 | PARylation inhibition assay.
PARPi-FL and [18F]PARPi quantify PARP inhibition, we compared their ability to inhibit PARylation
in comparison with olaparib.
inhibition. At 1 µM, the PAR signal for all three compounds is nearly completely eliminated.
(In western blotting, separated proteins are transferred to a membrane and probed.)

In another series the target is T1, PARP2 (Homo sapiens, UniProt Q9UGN5).
T1 construct: purchased BPS Bioscience, San Diego, CA
T1 sequence (Q9UGN5 whole entry): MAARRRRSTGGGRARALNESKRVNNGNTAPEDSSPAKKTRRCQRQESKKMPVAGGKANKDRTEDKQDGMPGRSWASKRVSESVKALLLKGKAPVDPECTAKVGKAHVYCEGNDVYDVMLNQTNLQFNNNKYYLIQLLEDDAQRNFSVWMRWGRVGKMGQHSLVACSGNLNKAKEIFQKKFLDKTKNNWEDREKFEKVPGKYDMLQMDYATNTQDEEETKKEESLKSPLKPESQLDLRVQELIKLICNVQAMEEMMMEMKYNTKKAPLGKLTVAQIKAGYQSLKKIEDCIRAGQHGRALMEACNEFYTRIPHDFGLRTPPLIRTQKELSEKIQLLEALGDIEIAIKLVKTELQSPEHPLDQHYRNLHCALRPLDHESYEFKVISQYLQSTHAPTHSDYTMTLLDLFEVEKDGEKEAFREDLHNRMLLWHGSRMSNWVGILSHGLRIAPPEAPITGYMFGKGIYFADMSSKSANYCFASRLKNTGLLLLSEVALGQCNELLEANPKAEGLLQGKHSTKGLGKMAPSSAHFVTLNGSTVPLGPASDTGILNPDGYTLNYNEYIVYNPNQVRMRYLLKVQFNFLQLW
Description: PARP2 IC50 assay (BPS Bioscience, Strep-HRP, histone substrate). The settings on record: footnote a: see Supplementary Fig. 2. The format is biochemical. On the procedure: Assays were performed by BPS Bioscience, San Diego, CA. […] Data was reported by BPS a`s % enzyme activity curve from 0.03 nM or 0.1 nM to 1000 nM.

The subject of series [1] is PARP1/2. The settings on record: for Blocking of [18F]PARPi tumor uptake (target engagement): 30 min before tracer, PET 2 h later. The text has this:
Fig. 7 Variable dose blocking.
The control group received no therapeutic inhibitor.

The test system of another series is PARP. The settings on record: cited from earlier work.
Series [2] has as its system PARP1/2. The experiment in a line: Ex vivo autoradiography of target engagement. The settings on record: olaparib 50 mg/kg, talazoparib 0.3 mg/kg, 30 min prior to tracer; tumor collected 2 h post tracer.
Description: Sections from 3 different tumor areas from each tumor (n = 3/group) were exposed to an autoradiography plate overnight and read the next day. ImageJ was used to quantify the signal intensity of each tissue. Adjacent sections were used for PARP1 IHC and H&E staining to confirm tissue identity and PARP1 expression.
For series [3], the system named is PARP1/2. The experiment in a line: In vitro binding kinetics by recovery of PARPi-FL binding (flow cytometry). The format is cell-based, human. The settings on record: JHU-LX22 cells, 0.2 µM inhibitor 25 min, washed, 0-48 h post-incubation, two phase decay fit. How it is done: Cells were then treated with fluorescent imaging agent PARPi-FL and either imaged via confocal microscopy or measured via flow cytometry. […] Then, cells were trypsinized, subjected to flow cytometry and analyzed for the relative PARPi-FL fluorescence signal. […] Error bars represent the SD of three independent experiments with three parallels each
After the respective treatment/staining, which is described below for the different experiments, cells were washed in PBS, trypsinized, washed with flow buffer (1% BSA (w/v) in PBS), transferred to 5 mL flow cytometry tubes through the 40 µm cell strainer cap and left on ice until measurement in the flow cytometer (Fortessa II). Raw data were processed in FlowJo software in order to calculate PARPi-FL uptake per cell. Dead cells were excluded by eliminating DAPI positive cells from the analysis (Supplementary Fig. 8). Cell clumps and debris were eliminated using the corresponding gates (forward and side scatter) for the unstained cell population. PARPi-FL fluorescence was imaged in the FITC channel against side scatter (area).
We furthermore determined the duration of PARPi binding to their target site. […] Then, cells were subjected to flow cytometry as described above. […] We determined the duration of binding of the PARPi indirectly by calculating the recovery of PARP-FL binding with increasing times between PARPi and PARPi-FL treatment. Decay curves were calculated with Prism using two phase decay least squares regression.

For series [4], the system named is PARP1/2. The settings on record: olaparib 50 mg/kg; for Initial blocking (t = 1 h): talazoparib 0.3 mg/kg i.v., 60 min between drug and tracer.
Description: All PET/CT images (n = 90) were acquired on an Inveon PET/CT (Siemens) and reconstructed scans were analyzed using the Inveon Research Workplace Software (Siemens). To acquire PET/CT images, animals were anesthetized with 2% isoflurane and positioned on the scanner bed. […] PET data were collected for 5–10 min, followed by CT.
Activity concentration was quantified by averaging the mean values taken from VOIs drawn over the entire tumor as it appeared in the CT and portrayed as a mean %ID/g ± SD.

`CC1=CC(C)=[N+]2C1=Cc1ccc(CCC(=O)N3CCN(C(=O)c4cc(Cc5n[nH]c(=O)c6ccccc56)ccc4F)CC3)n1[B-]2(F)F` [PARPi-FL]: the “Inhibition of PARylation (PAR signal)” value in the series on PARylation in LX22 cells is reported as “reduced PAR signal, but not complete”. The IC50 on PARP2 was found to be 0.31 nM.

`Cn1ncnc1[C@H]1c2n[nH]c(=O)c3cc(F)cc(c23)N[C@@H]1c1ccc(F)cc1` [Talazoparib, (8S,9R)-5-Fluoro-8-(4-fluorophenyl)-9-(1-methyl-1H-1,2,4-triazol-5-yl)-2,7,8,9-tetrahydro-3H-pyrido[4,3,2-de]phthalazin-3-one]: the “Blocking of [18F]PARPi tumor uptake (target engagement)” value in the series with PARP1/2 [1] (0.3 mg/kg i.v.) was found to be 50%; in the series on PARP1/2 [1] (0.9 mg/kg i.v.) it was 64%; with PARP1/2 [1] (5 mg/kg i.v.), 89%; with PARP1/2 [1] (15 mg/kg i.v.), 84%. Also, the 50% blocking dose in the series on PARP1/2 [1] (single-phase decay curve fit, JHU-LX48 PDX tumor) was found to be 0.36 mg/kg. Moreover, the “PARP trapping, in words” value with PARP was “most effective PARP trapping agent”. For the same molecule, the “[18F]PARPi tumor uptake blocked (autoradiography)” value with PARP1/2 [2] was 45%. Besides, the “Retention on PARP1/2 binding sites, in words” value in the series with PARP1/2 [3] was “longest retention”. The “Initial blocking (t = 1 h)” value in the series on PARP1/2 [4] and in the series on PARP1/2 [4] (listed as talazoparib) was 56% each time. In addition, the AUC with PARP1/2 [4] (target engagement over 48 h, single dose, talazoparib 0.3 mg/kg) is given as 1021 %h. Besides, the “t1/2 (weighted)” value with PARP1/2 [4] (two phase decay fit of target engagement, talazoparib 0.3 mg/kg) stood at 9.8 h.

In the case of `O=C(c1ccc(F)cc1)N1CCN(C(=O)c2cc(Cc3n[nH]c(=O)c4ccccc34)ccc2F)CC1` [^19F-PARPi], the “Inhibition of PARylation (PAR signal)” value in the series on PARylation in LX22 cells was “nearly complete inhibition”. Further, in the series with PARP1/2 [3], the “Retention on PARP1/2 binding sites, in words” value is “longest retention”.

In general, IC50 refers to the point on the concentration scale where inhibition reaches its midpoint. Read a high IC50 as weaker potency in that assay.
